Key:
COX-1 = target: T1, COX-1 (Ovis aries, UniProt P05979); assay: colorimetric COX peroxidase inhibitor screening kit, […] nm; assay type: biochemical; details: tested at 100 µM only, 2 min, RT; unreliable
T1 construct: gene PTGS1; homodimer
T1 sequence (P05979 25-600): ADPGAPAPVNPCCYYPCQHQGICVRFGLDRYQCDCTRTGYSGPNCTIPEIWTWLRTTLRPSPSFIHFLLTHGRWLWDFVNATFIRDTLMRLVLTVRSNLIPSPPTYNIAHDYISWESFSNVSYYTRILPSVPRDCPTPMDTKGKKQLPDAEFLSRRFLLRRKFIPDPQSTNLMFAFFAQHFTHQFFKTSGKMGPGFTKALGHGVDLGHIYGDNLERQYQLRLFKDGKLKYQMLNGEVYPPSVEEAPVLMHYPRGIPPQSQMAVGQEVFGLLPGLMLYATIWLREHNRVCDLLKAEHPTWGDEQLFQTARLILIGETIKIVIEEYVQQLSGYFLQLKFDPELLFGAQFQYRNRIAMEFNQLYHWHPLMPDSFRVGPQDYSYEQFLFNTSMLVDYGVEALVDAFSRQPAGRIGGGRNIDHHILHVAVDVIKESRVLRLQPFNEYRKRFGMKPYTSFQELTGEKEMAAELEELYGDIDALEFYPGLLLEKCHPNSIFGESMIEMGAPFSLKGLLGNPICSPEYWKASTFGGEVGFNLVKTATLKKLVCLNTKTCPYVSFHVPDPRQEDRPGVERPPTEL

COX-2 = target: T2, COX-2 (Homo sapiens, UniProt P35354); assay: as above; assay type: biochemical; details: tested at 100 µM only, 2 min, RT; unreliable
T2 construct: gene PTGS2; homodimer
T2 sequence (P35354 18-604): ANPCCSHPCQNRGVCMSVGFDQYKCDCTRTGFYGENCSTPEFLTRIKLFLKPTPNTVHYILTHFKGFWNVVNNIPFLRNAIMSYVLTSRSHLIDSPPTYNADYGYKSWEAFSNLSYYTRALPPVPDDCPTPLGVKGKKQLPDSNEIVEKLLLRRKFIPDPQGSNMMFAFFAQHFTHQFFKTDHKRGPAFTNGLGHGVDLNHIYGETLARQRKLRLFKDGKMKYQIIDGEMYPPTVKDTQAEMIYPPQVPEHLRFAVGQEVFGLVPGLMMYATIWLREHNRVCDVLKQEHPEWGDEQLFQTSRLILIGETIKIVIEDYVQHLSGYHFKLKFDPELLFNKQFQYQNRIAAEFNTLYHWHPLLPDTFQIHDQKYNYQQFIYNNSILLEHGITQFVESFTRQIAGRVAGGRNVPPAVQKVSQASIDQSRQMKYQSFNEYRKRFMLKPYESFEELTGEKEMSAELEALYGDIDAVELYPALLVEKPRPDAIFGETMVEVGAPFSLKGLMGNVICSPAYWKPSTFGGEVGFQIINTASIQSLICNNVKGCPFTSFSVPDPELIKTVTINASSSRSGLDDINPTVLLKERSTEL

Cyclooxygenase Inhibition Assay IC50 [μM] / COX-1 (COX-1) [µM]	Cyclooxygenase Inhibition Assay IC50 [μM] / COX-2 (COX-2) [µM]	SMILES
78.73 ± 0.06	60.75 ± 0.02	CCCCn1c(C)c2c(c1C)C(=O)N(CN1CCN(c3ccc(C)cc3)CC1)C2=O [2e, 4,6-dimethyl-5-n-butyl-2-{[4-(p-methylphenyl)-1-piperazinyl]methyl}pyrrolo[3,4-c]pyrrole-1,3-(2H,5H)-dione]
80.25 ± 0.06	59.92 ± 0.05	Cc1c2c(c(C)n1-c1ccccc1)C(=O)N(CN1CCN(C3CCCCC3)CC1)C2=O [2g, 4,6-dimethyl-5-phenyl-2-[(4-cyclohexyl-1-piperazinyl)methyl]pyrrolo[3,4-c]pyrrole-1,3(2H,5H)-dione]
80.51 ± 0.06	58.87 ± 0.08	CCCCn1c(C)c2c(c1C)C(=O)N(CN1CCN(c3ncccn3)CC1)C2=O [2f, 4,6-dimethyl-5-n-butyl-2-{[4-(2-pyrimidinyl)piperazin-1-yl]methyl}pyrrolo[3,4-c]pyrrole-1,3(2H,5H)-dione]
76.54 ± 0.06	59.37 ± 0.05	Cc1c2c(c(C)n1-c1ccccc1Cl)C(=O)N(CN1CCN(C3CCCCC3)CC1)C2=O [2h, 4,6-dimethyl-5-(o-chlorophenyl)-2-[(4-cyclohexyl-1-piperazinyl)methyl]pyrrolo[3,4-c]pyrrole-1,3(2H,5H)-dione]
94.17 ± 0.04	61.46 ± 0.02	Cc1c2c(c(C)n1-c1ccccc1Cl)C(=O)N(CN1CCN(c3ccc(Br)cc3)CC1)C2=O [2b, 4,6-dimethyl-5-(o-chlorophenyl)-2-{[4-(p-bromophenyl)-1-piperazinyl]methyl}pyrrolo[3,4-c]pyrrole-1,3(2H,5H)-dione]
79.87 ± 0.07	60.96 ± 0.04	CCCCn1c(C)c2c(c1C)C(=O)N(CN1CCN(C3CCCCC3)CC1)C2=O [2i, 4,6-dimethyl-5-n-butyl-2-[(4-cyclohexyl-1-piperazinyl)methyl]pyrrolo[3,4-c]pyrrole-1,3(2H,5H)-dione]
82.94 ± 0.04	59.37 ± 0.07	CCCCn1c(C)c2c(c1C)C(=O)N(CN1CCC(O)(Cc3ccccc3)CC1)C2=O [2p, 4,6-dimethyl-5-n-butyl-2-{[4-benzyl-4-hydroxypiperidin-1-yl]methyl}pyrrolo[3,4-c]pyrrole-1,3(2H,5H)-dione]
78.25 ± 0.10	58.38 ± 0.16	CCCCn1c(C)c2c(c1C)C(=O)N(CN1CCC(O)(c3ccc(Cl)cc3)CC1)C2=O [2o, 4,6-dimethyl-5-n-butyl-2-{[4-(p-chlorophenyl)-4-hydroxypiperidin-1-yl]methyl}pyrrolo[3,4-c]pyrrole-1,3(2H,5H)-dione]
87.90 ± 0.03	60.85 ± 0.02	Cc1c2c(c(C)n1-c1ccccc1)C(=O)N(CN1CCN(c3ccc(Br)cc3)CC1)C2=O [2a, 4,6-dimethyl-5-phenyl-2{[4-(p-bromophenyl)-1-piperazinyl]methyl}pyrrolo[3,4-c]pyrrole-1,3(2H,5H)-dione]
84.90 ± 0.05	59.77 ± 0.11	CCCCn1c(C)c2c(c1C)C(=O)N(CN1CCN(CCO)CC1)C2=O [2j, 4,6-dimethyl-5-n-butyl-2-{[4-hydroxyethyl-1-piperazinyl]methyl}pyrrolo[3,4-c]pyrrole-1,3(2H,5H)-dione]
88.15 ± 0.02	60.39 ± 0.02	CCCCn1c(C)c2c(c1C)C(=O)N(CN1CCC(c3ccccc3)CC1)C2=O [2m, 4,6-dimethyl-5-n-butyl-2-[(4-phenyl-1-piperidinyl)methyl]pyrrolo[3,4-c]pyrrole-1,3(2H,5H)-dione]
82.72 ± 0.04	59.33 ± 0.09	Cc1c2c(c(C)n1-c1ccccc1)C(=O)N(CN1CCOCC1)C2=O [2l, 4,6-dimethyl-5-phenyl-2-[(morpholinyl)methyl]pyrrolo[3,4-c]pyrrole-1,3(2H,5H)-dione]
77.59 ± 0.09	57.65 ± 0.04	CCCCn1c(C)c2c(c1C)C(=O)N(CN1CCC(O)(c3ccc(Br)cc3)CC1)C2=O [2n, 4,6-dimethyl-5-n-butyl-2-{[4-(p-bromophenyl)-4-hydroxypiperidin-1-yl]methyl}pyrrolo[3,4-c]pyrrole-1,3(2H,5H)-dione]
77.46 ± 0.06	60.24 ± 0.03	Cc1c2c(c(C)n1-c1ccccc1)C(=O)N(CN1CCN(c3cccc(C(F)(F)F)c3)CC1)C2=O [2d, 4,6-dimethyl-5-phenyl-2{[4-(m-trifluoromethylphenyl)-1-piperazinyl]methyl}pyrrolo[3,4-c]pyrrole-1,3(2H,5H)-dione]
83.47 ± 0.05	58.43 ± 0.06	Cc1c2c(c(C)n1-c1ccccc1)C(=O)N(CN1CCNCC1)C2=O [2k, 4,6-dimethyl-5-phenyl-2-[(piperazinyl)methyl]pyrrolo[3,4-c]pyrrole-1,3(2H,5H)-dione]
94.56 ± 0.02	61.53 ± 0.09	Cc1c2c(c(C)n1-c1ccccc1)C(=O)N(CN1CCN(c3ccccc3C#N)CC1)C2=O [2c, 4,6-dimethyl-5-phenyl-2{[4-(o-cyanophenyl)-1-piperazinyl]methyl}pyrrolo[3,4-c]pyrrole-1,3(2H,5H)-dione]

— publication PMC7866801, “Design and Synthesis of N-Substituted 3,4-Pyrroledicarboximides as Potential Anti-Inflammatory Agents” (International Journal of Molecular Sciences, 2021)
